# Assay results as given in patent publication US20030055072A1, “Methods of inhibiting Pin1-associated states using a fredericamycin a compound” (priority 2000, published 2003).
# Read-outs that look alike come from different tables or passages of the source.
# What was measured:
# [1] = target: hPin1 (Homo sapiens, UniProt Q13526); experiment: protease-coupled PPIase assay, hPin1; assay type: biochemical
# Description: PPIase activity measurements were performed by the protease-coupled PPIase assay developed by Fischer et al. (1984). For hPin1 activity measurements, bovine trypsin (final concentration 0.21 mg/mL, Sigma) was used as an isomer-specific protease and Ac-Ala-Ala-Ser(P)-Pro-Arg-pNA (Jerini, Germany) as a substrate. PPIase activity of hFKBP12 (Sigma) and hCyp18 (Sigma) was determined with the peptide substrate Suc-Ala-Phe-Pro-Phe-pNA (Bachem) and the protease α-chymotrypsin (final concentration 0.41 mg/mL, Sigma). The test was performed by observing the released 4-nitroanilide at 390 nm with a Hewlett-Packard 8453 UV-vis spectrophotometer at 10° C. The total reaction volume was adjusted to 1.23 mL by mixing appropriate volumes of 35 mM HEPES (pH 7.8) with enzyme and effector solutions. Fredericamycin A (BioLeads, Germany) was freshly diluted from a 1 mg/mL stock solution in DMSO. If not otherwise indicated, fredericamycin A (0-6 μM) was pre-incubated with the enzyme for 5 min (10° C.). Prior to the start of reaction by addition of the respective protease, 2 μL of the peptide substrate stock solution (10 mg/mL in DMSO) were added. The amount of organic solvent was kept constant within each experiment (<0.1%). The pseudo-first-order rate constant kobs for cis/trans isomerization in the presence of PPlase and the first-order rate constant k0 of the unkatalyzed cis/trans isomerization were calculated using the Kinetics Software of Hewlett-Packard as well as SigmaPlot2000 for Windows 6.0 (SPSS). The Ki value for inhibition of hPin1 PPIase activity by fredericamycin A at constant concentrations of substrate ([S0]<<KM) was calculated by fitting the data according to the equation for a competitive “tight-binding” inhibitor using SigmaPlot2000.
# FIG. 1: Ki value for hPin1 PPlase activity inhibition by fredericamycin A. PPIase activity measurements were performed as described in Materials and Methods. 6.0 nM of Pin1 were pre-incubated with 0-4.8 μM fredericamycin A in 35 mM HEPES (pH 7.8) at […] for 5 min. Ac-Ala-Ala-Ser(P)-Pro-Arg-pNA (21.9 μM) was used as a substrate. Reactions were started by addition of trypsin.
# FIG. 2: Time dependency of Pin1 PPIase activity inhibition by fredericamycin A. PPIase activity measurements were performed as described in Materials and Methods. 6.0 nM hPin1 was incubated for 0, 5, 10, 15, 20, 25 and 30 min with 0 (●) and 1 μM (♦) fredericamycin, respectively.
# FIG. 3: Reversibility of the interaction between hPin1 and fredericamycin A. 209 nM of hPin1 were incubated with 0 (▪) and 0.16 (□) […] fredericamycin A and the remaining PPIase activity of hPin1 was measured before and after micro-separation through a semipermeable membrane using the protease-coupled PPlase assay according to Materials and Methods.
# [2] = target: T1, hCyp18 (Homo sapiens, UniProt P62937); experiment: protease-coupled PPIase assay, hCyp18; assay type: biochemical
# T1 construct: purchased Sigma
# T1 sequence (P62937 whole entry): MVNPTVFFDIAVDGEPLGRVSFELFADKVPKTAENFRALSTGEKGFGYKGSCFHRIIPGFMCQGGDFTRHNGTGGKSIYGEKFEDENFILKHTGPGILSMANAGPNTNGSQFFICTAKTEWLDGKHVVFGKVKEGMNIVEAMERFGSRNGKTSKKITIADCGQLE
# Description: (§1) PPIase activity measurements were performed by the protease-coupled PPIase assay developed by Fischer et al. (1984). For hPin1 activity measurements, bovine trypsin (final concentration 0.21 mg/mL, Sigma) was used as an isomer-specific protease and Ac-Ala-Ala-Ser(P)-Pro-Arg-pNA (Jerini, Germany) as a substrate. PPIase activity of hFKBP12 (Sigma) and hCyp18 (Sigma) was determined with the peptide substrate Suc-Ala-Phe-Pro-Phe-pNA (Bachem) and the protease α-chymotrypsin (final concentration 0.41 mg/mL, Sigma). The test was performed by observing the released 4-nitroanilide at 390 nm with a Hewlett-Packard 8453 UV-vis spectrophotometer at 10° C. The total reaction volume was adjusted to 1.23 mL by mixing appropriate volumes of 35 mM HEPES (pH 7.8) with enzyme and effector solutions. […] The pseudo-first-order rate constant kobs for cis/trans isomerization in the presence of PPlase and the first-order rate constant k0 of the unkatalyzed cis/trans isomerization were calculated using the Kinetics Software of Hewlett-Packard as well as SigmaPlot2000 for Windows 6.0 (SPSS). The Ki value for inhibition of hPin1 PPIase activity by fredericamycin A at constant concentrations of substrate ([S0]<<KM) was calculated by fitting the data according to the equation for a competitive “tight-binding” inhibitor using SigmaPlot2000.
# [3] = target: T2, hFKBP12 (Homo sapiens, UniProt P62942); experiment: protease-coupled PPIase assay, hFKBP12; assay type: biochemical
# T2 construct: purchased Sigma
# T2 sequence (P62942 whole entry): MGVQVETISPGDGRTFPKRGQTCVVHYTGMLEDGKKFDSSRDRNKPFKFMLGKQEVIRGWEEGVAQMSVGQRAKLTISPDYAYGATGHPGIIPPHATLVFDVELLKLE
# Description: as §1
# [4] = system: DU-145 prostate tumor; experiment: tumor growth in scid mouse human prostate tumor model; assay type: in vivo, scid mice
# [5] = system: glioblastoma cells; details: Misra et al. 1982; cited from earlier work
# [6] = Day 7 (before dosing), group 0.34 mg/kg ip Days 16-20
# [7] = Day 12 (before dosing), group 0.34 mg/kg ip Days 16-20
# [8] = Day 14 (before dosing), group 0.34 mg/kg ip Days 16-20
# [9] = Day 18, 0.34 mg/kg ip Days 16-20
# [10] = Day 21, 0.34 mg/kg ip Days 16-20
# [11] = Day 25, 0.34 mg/kg ip Days 16-20
# [12] = Day 28, 0.34 mg/kg ip Days 16-20
# [13] = Day 32, 0.34 mg/kg ip Days 16-20
# hPin1, sequence (Q13526 whole entry): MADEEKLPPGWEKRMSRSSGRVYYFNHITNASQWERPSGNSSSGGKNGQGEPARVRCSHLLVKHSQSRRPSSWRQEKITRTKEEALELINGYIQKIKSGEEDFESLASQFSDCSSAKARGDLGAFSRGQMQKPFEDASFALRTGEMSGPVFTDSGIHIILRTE
smiles,measurement,setting,value
C/C=C/C=C/c1cc2cc3c(c(O)c2c(=O)[nH]1)C1(CC3)C(=O)c2c(O)c3c(c(O)c2C1=O)C(=O)C(OC)=CC3=O (stereo not drawn) [fredericamycin A],Ki,"[1]; 6.0 nM Pin1, 5 min pre-incubation, 35 mM HEPES pH 7.8, substrate Ac-Ala-Ala-Ser(P)-Pro-Arg-pNA, competitive tight-binding fit, read-out: Ki value for inhibition of the PPIase activity of hPin1",0.82 ± 0.608 µM
same,time dependency of inhibition of hPin1 PPIase activity,"[1]; 6.0 nM hPin1, 1 μM inhibitor, 0-30 min incubation",no time dependency of inhibition within 30 min
same,remaining hPin1 PPIase activity,"[1]; 209 nM hPin1, 0.16 mM inhibitor, before micro-concentration",23%
same,hPin1 reactivation after micro-concentration through semi-permeable membrane (reversibility),"[1]; 209 nM hPin1, 0.16 mM inhibitor, buffer replaced 3 times, compared to inhibitor-free enzyme control",97.5%
same,preference for the parvulin hPin1 over the other tested PPIases,[1]; hPin1 versus hCyp18 and hFKBP12,6- to 7 fold
same,IC50,[1]; protease-coupled PPIase assay,0.89 ± 0.05 µM
same,IC50,[2],5.1 ± 2 µM
same,IC50,[3],6.2 ± 1.7 µM
same,Tumor Volume,[4]; [6],0.02 cm^3
same,Tumor Volume,"[4]; Day 7 (before dosing), group 0.67 mg/kg ip Days 16-20",0.04 cm^3
same,Tumor Volume,[4]; [7],0.05 cm^3
same,Tumor Volume,"[4]; Day 12 (before dosing), group 0.67 mg/kg ip Days 16-20",0.04 cm^3
same,Tumor Volume,[4]; [8],0.05 cm^3
same,Tumor Volume,"[4]; Day 14 (before dosing), group 0.67 mg/kg ip Days 16-20",0.07 cm^3
same,Tumor Volume,[4]; [9],0.03 cm^3
same,Tumor Volume,"[4]; Day 18, 0.67 mg/kg ip Days 16-20",0.05 cm^3
same,Tumor Volume,[4]; [10],0.11 cm^3
same,Tumor Volume,[4]; [11],0.11 cm^3
same,Tumor Volume,[4]; [12],0.22 cm^3
same,Tumor Volume,[4]; [13],0.35 cm^3
same,reduction of mean tumor volume as compared to the DMSO or Mitox controls,"[4]; FIG. 4, DU-145 tumor bearing scid mice, ip Days 16-20",50%
same,death of mice,"0.67 mg/kg ip from Day 16, ten mice per group",All of the mice receiving 0.67 mg/kg of Fred A died by about Day 17
same,number of mice that lived until Day 32,"mouse, in vivo",2
same,anti-tumor activity against glioblastoma cells,[5],"comparable to 1,3-bis(2-chloroethyl)-1-nitrosourea (BCNU)"
"O=C1c2c(O)ccc(O)c2C(=O)c2c(NCCNCCO)ccc(NCCNCCO)c21 [Mitox, reference compound]",Tumor Volume,[4]; [6],0.02 cm^3
same,Tumor Volume,[4]; [7],0.05 cm^3
same,Tumor Volume,[4]; [8],0.09 cm^3
same,Tumor Volume,[4]; [9],0.19 cm^3
same,Tumor Volume,[4]; [10],0.22 cm^3
same,Tumor Volume,[4]; [11],0.37 cm^3
same,Tumor Volume,[4]; [12],0.53 cm^3
same,Tumor Volume,[4]; [13],0.72 cm^3
same,mice that died after 32 days,"0.34 mg/kg ip Days 16-20, ten mice per group",None
same,Mean Mouse Weight,[6],27.98 g
same,Mean Mouse Weight,[7],28.32 g
same,Mean Mouse Weight,[9],27.39 g
same,Mean Mouse Weight,[11],27.38 g
same,Mean Mouse Weight,[13],28.04 g
same,Mean Mouse Weight,"Day −6 (before dosing), group 0.34 mg/kg ip Days 16-20",26.36 g
